Test results as given in article PMC3961306, “Comparison of the Cancer Gene Targeting and Biochemical Selectivities of All Targeted Kinase Inhibitors Approved for Clinical Use” (PLoS ONE, 2014).

What was measured:
Assay in all cases: Kinase profiling in a biochemical assay panel (mobility shift assays and ELISA), %-inhibition at 1 μM; selectivity entropy
[1] = molecular target: panel of more than 300 wild-type and mutant kinases (313 kinase panel) (Homo sapiens, UniProt Q9HBH9)
[2] = molecular target: panel of more than 300 wild-type and mutant kinases (313 kinase panel) (Homo sapiens, UniProt P51617)
[3] = molecular target: T1, panel of more than 300 wild-type and mutant kinases (313 kinase panel) (Homo sapiens, UniProt Q9BXA7)
T1 sequence (Q9BXA7 1-367): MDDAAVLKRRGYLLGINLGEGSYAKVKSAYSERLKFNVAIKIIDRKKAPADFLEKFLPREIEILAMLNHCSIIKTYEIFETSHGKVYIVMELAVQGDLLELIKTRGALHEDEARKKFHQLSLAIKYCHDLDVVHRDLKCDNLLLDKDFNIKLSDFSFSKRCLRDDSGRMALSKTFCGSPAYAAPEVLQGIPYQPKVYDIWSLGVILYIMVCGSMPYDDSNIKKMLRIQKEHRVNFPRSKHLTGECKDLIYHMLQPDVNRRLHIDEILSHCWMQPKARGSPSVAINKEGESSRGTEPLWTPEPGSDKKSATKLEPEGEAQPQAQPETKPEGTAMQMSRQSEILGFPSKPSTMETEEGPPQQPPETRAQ

[4] = molecular target: panel of more than 300 wild-type and mutant kinases (313 kinase panel) (Homo sapiens, UniProt P08631)
panel of more than 300 wild-type and mutant kinases (313 kinase panel) (Homo sapiens, UniProt P08631), sequence (P08631 whole entry, change not shown): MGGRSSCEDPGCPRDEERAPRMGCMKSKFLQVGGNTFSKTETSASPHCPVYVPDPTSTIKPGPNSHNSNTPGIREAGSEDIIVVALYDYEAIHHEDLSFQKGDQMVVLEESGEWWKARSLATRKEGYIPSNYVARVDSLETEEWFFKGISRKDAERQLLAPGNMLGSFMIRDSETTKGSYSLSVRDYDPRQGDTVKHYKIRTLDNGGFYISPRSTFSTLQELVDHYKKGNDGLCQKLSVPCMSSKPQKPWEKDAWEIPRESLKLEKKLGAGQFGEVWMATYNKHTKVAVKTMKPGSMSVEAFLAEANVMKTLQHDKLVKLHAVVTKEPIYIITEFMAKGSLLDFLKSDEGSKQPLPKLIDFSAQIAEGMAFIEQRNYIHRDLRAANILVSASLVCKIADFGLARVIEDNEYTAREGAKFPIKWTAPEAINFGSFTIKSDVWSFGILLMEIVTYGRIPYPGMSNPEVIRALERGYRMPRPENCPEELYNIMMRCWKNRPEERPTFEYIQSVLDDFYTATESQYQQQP

[5] = molecular target: panel of more than 300 wild-type and mutant kinases (313 kinase panel) (Homo sapiens, UniProt P41240); conditions: kinase CSK; compound at 1 μM
panel of more than 300 wild-type and mutant kinases (313 kinase panel) (Homo sapiens, UniProt P41240), sequence (P41240 whole entry, change not shown): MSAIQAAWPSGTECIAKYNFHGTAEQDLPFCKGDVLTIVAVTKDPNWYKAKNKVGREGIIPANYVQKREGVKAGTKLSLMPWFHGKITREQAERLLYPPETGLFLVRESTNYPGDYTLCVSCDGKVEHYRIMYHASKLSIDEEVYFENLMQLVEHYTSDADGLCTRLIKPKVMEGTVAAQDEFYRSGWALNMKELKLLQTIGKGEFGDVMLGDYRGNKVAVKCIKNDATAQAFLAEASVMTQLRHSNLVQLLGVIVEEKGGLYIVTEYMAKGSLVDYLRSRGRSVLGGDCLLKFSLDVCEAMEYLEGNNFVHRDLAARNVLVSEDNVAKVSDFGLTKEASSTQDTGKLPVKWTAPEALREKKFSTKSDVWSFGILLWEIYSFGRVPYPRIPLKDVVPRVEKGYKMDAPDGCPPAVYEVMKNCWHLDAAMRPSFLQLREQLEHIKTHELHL

[6] = molecular target: T2, panel of more than 300 wild-type and mutant kinases (313 kinase panel) (Homo sapiens, UniProt P15735)
T2 sequence (P15735 1-406): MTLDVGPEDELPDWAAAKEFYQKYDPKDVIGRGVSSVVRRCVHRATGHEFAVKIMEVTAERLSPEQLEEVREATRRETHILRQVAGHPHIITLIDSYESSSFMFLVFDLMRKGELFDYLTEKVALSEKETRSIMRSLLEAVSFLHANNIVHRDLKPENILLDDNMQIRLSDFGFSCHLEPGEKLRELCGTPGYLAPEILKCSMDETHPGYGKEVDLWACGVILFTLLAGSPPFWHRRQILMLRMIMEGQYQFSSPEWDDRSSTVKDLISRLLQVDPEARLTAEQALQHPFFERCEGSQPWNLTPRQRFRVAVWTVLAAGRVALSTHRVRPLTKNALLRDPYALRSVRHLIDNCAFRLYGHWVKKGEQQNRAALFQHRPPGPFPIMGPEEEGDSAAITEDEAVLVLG

[7] = molecular target: panel of more than 300 wild-type and mutant kinases (313 kinase panel) (Homo sapiens, UniProt P45983)
panel of more than 300 wild-type and mutant kinases (313 kinase panel) (Homo sapiens, UniProt P45983), sequence (P45983 whole entry, change not shown): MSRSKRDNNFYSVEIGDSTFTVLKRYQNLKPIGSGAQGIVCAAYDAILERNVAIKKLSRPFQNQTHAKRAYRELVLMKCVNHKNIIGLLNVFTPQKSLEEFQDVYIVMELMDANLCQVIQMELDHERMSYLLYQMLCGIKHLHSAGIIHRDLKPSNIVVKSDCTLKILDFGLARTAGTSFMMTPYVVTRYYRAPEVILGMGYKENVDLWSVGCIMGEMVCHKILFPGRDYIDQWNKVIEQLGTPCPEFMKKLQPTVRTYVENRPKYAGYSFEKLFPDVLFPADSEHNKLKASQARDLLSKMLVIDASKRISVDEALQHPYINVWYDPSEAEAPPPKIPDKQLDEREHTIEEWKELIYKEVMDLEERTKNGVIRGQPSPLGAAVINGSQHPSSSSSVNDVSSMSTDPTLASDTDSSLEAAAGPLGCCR

[8] = molecular target: panel of more than 300 wild-type and mutant kinases (313 kinase panel) (Homo sapiens, UniProt P49760)
[9] = molecular target: T3, panel of more than 300 wild-type and mutant kinases (313 kinase panel) (Homo sapiens, UniProt Q13470)
T3 sequence (Q13470 1-666): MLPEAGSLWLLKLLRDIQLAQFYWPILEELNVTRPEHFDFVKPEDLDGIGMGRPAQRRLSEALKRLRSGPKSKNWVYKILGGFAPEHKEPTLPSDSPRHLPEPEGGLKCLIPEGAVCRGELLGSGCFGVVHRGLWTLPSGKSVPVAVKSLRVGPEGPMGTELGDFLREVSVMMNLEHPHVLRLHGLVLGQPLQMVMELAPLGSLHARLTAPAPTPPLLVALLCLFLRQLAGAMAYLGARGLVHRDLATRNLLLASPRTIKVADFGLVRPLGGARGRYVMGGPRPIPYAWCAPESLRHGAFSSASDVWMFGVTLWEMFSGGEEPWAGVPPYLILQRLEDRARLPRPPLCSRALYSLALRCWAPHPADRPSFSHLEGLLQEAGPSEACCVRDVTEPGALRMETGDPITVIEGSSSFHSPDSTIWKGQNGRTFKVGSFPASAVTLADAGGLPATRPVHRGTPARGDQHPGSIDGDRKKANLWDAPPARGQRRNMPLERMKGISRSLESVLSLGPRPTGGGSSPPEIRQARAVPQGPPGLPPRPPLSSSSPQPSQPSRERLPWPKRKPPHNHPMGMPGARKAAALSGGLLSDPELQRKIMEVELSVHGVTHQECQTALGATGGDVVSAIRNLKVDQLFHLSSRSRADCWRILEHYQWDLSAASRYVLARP

SMILES | %-inhibition of MNK2 ([1]; kinase MNK2, 1 μM) [%] | %-inhibition of IRAK1 ([2]; kinase IRAK1, compound at 1 μM) [%] | %-inhibition of TSSK1 ([3]; kinase TSSK1, 1 μM) [%] | %-inhibition of HCK ([4]; kinase HCK, compound at 1 μM) [%] | %-inhibition of CSK [5] [%] | %-inhibition of PHKG2 ([6]; kinase PHKG2, 1 μM) [%] | %-inhibition of JNK1 ([7]; kinase JNK1, compound at 1 μM) [%] | %-inhibition, CLK2 ([8]; kinase CLK2, 1 μM compound) [%] | %-inhibition of TNK1 ([9]; kinase TNK1, 1 μM) [%] | %-inhibition of TNK1 ([9]; 1 µM) [%] | %-inhibition of MNK2 ([1]; 1 µM) [%] | %-inhibition of IRAK1 ([2]; 1 µM) [%] | %-inhibition of TSSK1 ([3]; 1 µM) [%] | %-inhibition of HCK ([4]; 1 µM) [%] | %-inhibition of PHKG2 ([6]; 1 µM) [%] | %-inhibition of JNK1 ([7]; 1 µM) [%] | %-inhibition, CLK2 ([8]; 1 µM) [%]
CO[C@H]1C[C@@H]2CC[C@@H](C)[C@@](O)(O2)C(=O)C(=O)N2CCCC[C@H]2C(=O)O[C@H]([C@H](C)C[C@@H]2CC[C@@H](OCCO)[C@H](OC)C2)CC(=O)[C@H](C)/C=C(\C)[C@@H](O)[C@@H](OC)C(=O)[C@H](C)C[C@H](C)/C=C/C=C/C=C/1C [everolimus] | 1.88 | 12 | -6 | -2.7 | -7 | -8 | -5 | -17 | -0.4 |  |  |  |  |  |  |  | 
CCN(CC)CCNC(=O)c1c(C)[nH]c(/C=C2\C(=O)Nc3ccc(F)cc32)c1C [sunitinib] |  | 90 | 85 |  |  |  |  | 97 |  |  |  |  |  |  |  |  | 
CC(=O)Nc1cccc(-n2c(=O)n(C3CC3)c(=O)c3c(Nc4ccc(I)cc4F)n(C)c(=O)c(C)c32)c1 [trametinib] | -11 | 6 | -5 | -2.84 | -2.83 | 2.81 | -4.68 | -5 |  | -2.58 |  |  |  |  |  |  | 
O=S(=O)(c1cccc2cnccc12)N1CCCNCC1 [fasudil] | 12 | 3.42 | 26 | -2.15 | -3.28 | 4 | -5.43 | -0.292 |  |  |  |  |  |  |  |  | 
N#CC[C@H](C1CCCC1)n1cc(-c2ncnc3[nH]ccc23)cn1 [ruxolitinib] | 54 | 50 | 39 | 9 | -0.827 | 18 | -3 | 15 | 31 |  |  |  |  |  |  |  | 
CC(C)(C)c1nc(-c2cccc(NS(=O)(=O)c3c(F)cccc3F)c2F)c(-c2ccnc(N)n2)s1 [dabrafenib] |  | -48 | 8 | 57 | 98 | 2 | -1.12 | 0.875 | 100 |  |  |  |  |  |  |  | 
C[C@@H](Oc1cc(-c2cnn(C3CCNCC3)c2)cnc1N)c1c(Cl)ccc(F)c1Cl [crizotinib] | 2 |  | 21 | 26 | 9 | 10 | 0.431 | -6 | 41 |  |  |  |  |  |  |  | 
COc1cc2c(Nc3ccc(Br)cc3F)ncnc2cc1OCC1CCN(C)CC1 [vandetanib] |  | 46 | 2.66 |  | 68 | 19 | -0.604 | -18 | 23 |  |  |  |  |  |  |  | 
C#Cc1cccc(Nc2ncnc3cc(OCCOC)c(OCCOC)cc23)c1 [erlotinib] |  |  |  |  |  |  |  |  |  | 44 | 35 | -1.65 | 3.5 | 26 | 4 | 1.68 | 8
Cc1ccc(C(=O)Nc2ccc(CN3CCN(C)CC3)c(C(F)(F)F)c2)cc1C#Cc1cnc2cccnn12 [ponatinib] | 97 | 79 | -4 | 98 |  |  |  | -3.36 | 100 |  |  |  |  |  |  |  | 
Cc1ccc(Nc2nccc(N(C)c3ccc4c(C)n(C)nc4c3)n2)cc1S(N)(=O)=O [pazopanib] | 2.27 | 8 | -1.56 | 67 | 12 | 1 |  | 0.914 | 42 |  |  |  |  |  |  |  | 
Cc1nc(Nc2ncc(C(=O)Nc3c(C)cccc3Cl)s2)cc(N2CCN(CCO)CC2)n1 [dasatinib] |  | 2.75 | -4.66 |  |  |  |  |  | 4.31 |  |  |  |  |  |  |  | 
COc1cc(Nc2c(C#N)cnc3cc(OCCCN4CCN(C)CC4)c(OC)cc23)c(Cl)cc1Cl [bosutinib] | -2 | 12 | 29 | 89 | 84 |  |  | -0.431 | 11 |  |  |  |  |  |  |  | 
